Test results taken from publication PMC11960675, “3-Deazaguanosine inhibits SARS-CoV-2 viral replication and reduces the risk of COVID-19 pneumonia in hamster” (iScience, 2025).
“And” between values parts separate entries of the source, which are not always exact repeats. Equal values may be shown once. Read-outs that look alike come from different tables or passages of the source.

Tests used:
[1] = system: SARS-CoV-2; experiment: microbe, parasite or virus in culture; format: cell-based; details: MOI 0.001, day 3 post-infection; for EC50: Severe acute respiratory syndrome coronavirus 2, Vero C1008, 72 h, footnote a: CPE assay, SARS-CoV-2-infected Vero E6 cells, read-out: EC50 (anti-SARS-CoV-2 activity, CPE assay); for Anti-SARS-CoV-2 activity by CPE assay (crystal violet staining): Vero E6 cells, 30 μM in Figure 2
[2] = Cytotoxicity by WST-8 assay using uninfected Vero E6 cells; format: cell-based; details: African green monkey
[3] = system: SARS-CoV-2; experiment: qRT-PCR of viral RNA using SARS-CoV-2-infected Vero E6 cells; format: cell-based; details: Severe acute respiratory syndrome coronavirus 2, Vero C1008, footnote b: qRT-PCR of viral RNA, MOI 0.001, non-linear curve fit, read-out: EC50 (95% CI) (anti-SARS-CoV-2 activity, qRT-PCR of viral RNA)
[4] = system: SARS-CoV-2; experiment: Syrian hamster model of COVID-19, intraperitoneal treatment; details: for Body weight change of infected hamsters / Inflammatory area of lung sections: IP, 2 at 110 mg/kg/day qd, Molnupiravir 220 mg/kg/day bid; for Inflammatory area of lung sections: lung histopathology 5 dpi
[5] = system: SARS-CoV-2; experiment: Syrian hamster model of COVID-19, inhalation treatment by nebulizer; details: for Inflammatory area of lung sections: lung histopathology 5 dpi, INH 110 mg/kg/day qd
[6] = molecular target: recombinant SARS-CoV-2 RdRp complex (Severe acute respiratory syndrome coronavirus 2, UniProt P0DTD1); format: biochemical; details: 10 μM, 34°C, 2 h
[7] = molecular target: T1, vaccinia capping enzyme (VCE) (Vaccinia virus, UniProt P04298); format: biochemical; details: model RNA fragment, 37°C, 2 h, LC-MS
T1 construct: purchased CellScript C-SCCS2250

[8] = WST-8 assay, uninfected Vero E6 cells, read-out: CC50

With Nc1nccc2c1ncn2[C@@H]1O[C@H](CO)[C@@H](O)[C@H]1O [Compound 1, 3-deazaadenosine] the EC50 [1] was greater than 30 µM and the CC50 [2] was greater than 200 µM.
For Nc1cc2c(ncn2[C@@H]2O[C@H](CO)[C@@H](O)[C@H]2O)c(=O)[nH]1 [Compound 2, 3-Deazaguanosine], the “Anti-SARS-CoV-2 activity by CPE assay (crystal violet staining)” value (“Anti-SARS-CoV-2 activity by CPE assay” below) [1] was “inhibited viral replication”, the EC50 [3] was 1.14 µM and the CC50 [2] was greater than 200 µM. For the same molecule, the “Lower infectious viral titer in lungs (fold)” value ([4]; 2 dpi, IP 110 mg/kg/day qd) was > 10^5 fold, the “Body weight change of infected hamsters” value [4] was “marginal reduction in body weight” and the “Inflammatory area of lung sections” value [4] was 0.02 ± 0.02%. For the same molecule, the “Lower infectious viral titer in lungs (fold)” value ([5]; 5 dpi, inhalation, approximately 110 mg/kg/day qd) was “more than 10^2 fold”, the “Body weight loss associated with infection” value ([5]; inhalation, approximately 110 mg/kg/day qd) was “reduction in the body weight loss” and the “Inflammatory area of lung sections” value [5] was 0.98 (±0.36) % and 0.98 ± 0.36%.
In the case of Nc1cc2c(ncn2[C@@H]2O[C@H](COP(=O)(O)OP(=O)(O)OP(=O)(O)O)[C@@H](O)[C@H]2O)c(=O)[nH]1 [Compound 2-TP, 6-Amino-1-(β-D-ribofuranosyl)-1H-imidazo[4,5-c]pyridin-4(5H)-one 5′-triphosphate], the “RNA synthesis by recombinant SARS-CoV-2 RdRp complex (fluorescence intensity)” value [6] is reported as “not inhibited”, the “5′-capped RNA formed by VCE in the presence of both GTP and the compound” value [7] is reported as “no 5′-capped RNA” and the “5′-capped RNA formed by VCE with the compound in place of GTP” value [7] is reported as “small amounts of 5′-C^3GpppA-capped RNA (IIIb) and 5′-m7C^3GpppG-capped RNA (IVb)”.
Molecule OC[C@H]1O[C@@H](n2cnc3c(O)nccc32)[C@H](O)[C@@H]1O [Compound 3, 3-deazainosine] has an EC50 [1] greater than 30 µM and a CC50 [2] greater than 200 µM.
In the case of Nc1[nH]c(=O)c2ncn([C@@H]3O[C@H](CO)[C@@H](O)[C@H]3O)c2c1F [Compound 4, 3-fluoro-3-Deazaguanosine], the EC50 [1] is reported as greater than 30 µM, the “Anti-SARS-CoV-2 activity by CPE assay” value [1] is reported as “loss of anti-viral activity” and the CC50 [2] is reported as greater than 200 µM.
In the case of Nc1[nH]c(=O)c2ncn([C@@H]3O[C@H](CO)[C@@H](O)[C@H]3O)c2c1Cl [Compound 5, 3-chloro-3-Deazaguanosine], the EC50 [1] is reported as greater than 30 µM, the “Anti-SARS-CoV-2 activity by CPE assay” value [1] is reported as “loss of anti-viral activity” and the CC50 [2] is reported as greater than 200 µM.
For Nc1cc2c(ncn2[C@@H]2O[C@H](CO)[C@@H](O)[C@H]2O)c(N)n1 [Compound 6, 4,6-Diamino-1-β-D-ribofuranosyl-1H-imidazo[4,5-c]pyridine], the EC50 [1] was greater than 30 µM, the “Anti-SARS-CoV-2 activity by CPE assay” value [1] was “no inhibitory effects” and the CC50 [2] was greater than 200 µM.
With Nc1cc2[nH]cnc2c(=O)[nH]1 [Compound 10, 6-Amino-1H-Imidazo[4,5-c]pyridin-4(5H)-one] the “Anti-SARS-CoV-2 activity by CPE assay” value [1] was “had anti-SARS-CoV-2 activity”, the EC50 [3] was 12.6 µM and the CC50 [2, 8] was greater than 200 µM.
With Nc1cc2c(ncn2[C@H]2C[C@H](O)[C@@H](CO)O2)c(=O)[nH]1 [Compound 11, 6-Amino-1-(2-deoxy-β-D-ribofuranosyl)-1H-imidazo[4,5-c]pyridin-4(5H)-one] the “Anti-SARS-CoV-2 activity by CPE assay” value [1] was “had anti-SARS-CoV-2 activity”, the EC50 [3] was 5.35 µM and the CC50 [2] was greater than 200 µM.
In the case of CC(C)C(=O)OC[C@H]1O[C@@H](n2ccc(NO)nc2=O)[C@H](O)[C@@H]1O [Molnupiravir, reference compound], the “Body weight change of infected hamsters” value [4] is reported as “marginal reduction in body weight”, the “Inflammatory area of lung sections” value [4] is reported as 0.24 ± 0.16% and the “Inflammatory area of lung sections” value [5] is reported as 4.77 (±3.04) %.
With O=c1nc(NO)ccn1[C@@H]1O[C@H](CO)[C@@H](O)[C@H]1O [NHC, N^4-hydroxy cytidine, reference compound] the EC50 [3] was 0.27 µM and the CC50 [2] was greater than 200 µM.
Molecule CCC(CC)COC(=O)[C@H](C)N[P@](=O)(OC[C@H]1O[C@@](C#N)(c2ccc3c(N)ncnn23)[C@H](O)[C@@H]1O)Oc1ccccc1 [Remdesivir, reference compound] has an EC50 [3] of 0.47 µM and a CC50 [2, 8] greater than 200 µM.
With Nc1nc2c(ncn2[C@H]2CC[C@@H](COP(=O)(O)OP(=O)(O)OP(=O)(O)O)O2)c(=O)[nH]1 [ddGTP, 2′,3′-dideoxy GTP, reference compound] the “RNA synthesis by recombinant SARS-CoV-2 RdRp complex (fluorescence intensity)” value [6] was “reduced”.
